Reference: ChEMBL document CHEMBL1201862, “PubChem BioAssay data set” (2004)
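Assay format: 96-well plates, 48-hour exposure. Abbreviation: GI50, concentration required for 50% inhibition of growth.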 Calls of active or inactive are those of the source. Rule as the data show it: active = GI50 up to about 1.1 µM and inactive = higher.

Legend:
Assay in all cases: NCI-60 cell line screen, 48 h
LOX IMVI = system: LOX IMVI
NCI-H460 = system: NCI-H460
M14 = system: M14
UACC-257 = system: UACC-257
OVCAR-4 = system: OVCAR-4
NCI-H226 = system: NCI-H226
HCT-116 = system: HCT-116
SNB-19 = system: SNB-19
DU-145 = system: DU-145
SK-MEL-2 = system: SK-MEL-2
COLO 205 = system: COLO 205
OVCAR-3 = system: OVCAR-3
SK-MEL-28 = system: SK-MEL-28
T47D = system: T47D
MOLT-4 = system: MOLT-4
SR = system: SR
NCI-H23 = system: NCI-H23
UO-31 = system: UO-31
UACC-62 = system: UACC-62
MDA-MB-231 = system: MDA-MB-231
HL-60 = system: HL-60
SF-295 = system: SF-295
HOP-92 = system: HOP-92
Hs-578T = system: Hs-578T
NCI-H522 = system: NCI-H522
RXF 393 = system: RXF 393
SN12C = system: SN12C
PC-3 = system: PC-3
CAKI-1 = system: CAKI-1
MCF7 = system: MCF7
SW-620 = system: SW-620
HT-29 = system: HT-29
SNB-75 = system: SNB-75
ACHN = system: ACHN
HCC 2998 = system: HCC 2998
SF-268 = system: SF-268
OVCAR-5 = system: OVCAR-5
CCRF-CEM = system: CCRF-CEM
MDA-N = system: MDA-N
SK-MEL-5 = system: SK-MEL-5
U-251 = system: U-251
IGROV-1 = system: IGROV-1
MDA-MB-435 = system: MDA-MB-435
OVCAR-8 = system: OVCAR-8
SK-OV-3 = system: SK-OV-3
RPMI-8226 = system: RPMI-8226
HOP-62 = system: HOP-62
A549 = system: A549
786-0 = system: 786-0
SF-539 = system: SF-539
K562 = system: K562
A498 = system: A498
Malme-3M = system: Malme-3M
EKVX = system: EKVX
TK-10 = system: TK-10
NCI/ADR-RES = system: NCI/ADR-RES
HCT-15 = system: HCT-15
KM12 = system: KM12

O=C(O)c1ccccc1C(=O)NCC1S(=O)(=O)OCCOS1(=O)=O
GI50 (LOX IMVI): > 100 µM (inactive)
GI50 (NCI-H460): > 100 µM (inactive)
GI50 (M14): > 100 µM (inactive)
GI50 (UACC-257): > 100 µM (inactive)
GI50 (OVCAR-4): > 100 µM (inactive)
GI50 (NCI-H226): > 100 µM (inactive)
GI50 (HCT-116): > 100 µM (inactive)
GI50 (SNB-19): > 100 µM (inactive)
GI50 (DU-145): > 100 µM (inactive)
GI50 (SK-MEL-2): > 100 µM (inactive)
GI50 (COLO 205): > 100 µM (inactive)
GI50 (OVCAR-3): > 100 µM (inactive)
GI50 (SK-MEL-28): > 100 µM (inactive)
GI50 (T47D): > 100 µM (inactive)
GI50 (MOLT-4): > 100 µM (inactive)
GI50 (SR): > 100 µM (inactive)
GI50 (NCI-H23): > 100 µM (inactive)
GI50 (UO-31): > 100 µM (inactive)
GI50 (UACC-62): > 100 µM (inactive)
GI50 (MDA-MB-231): > 100 µM (inactive)
GI50 (HL-60): > 100 µM (inactive)
GI50 (SF-295): > 100 µM (inactive)
GI50 (HOP-92): > 100 µM (inactive)
GI50 (Hs-578T): > 100 µM (inactive)
GI50 (NCI-H522): > 100 µM (inactive)
GI50 (RXF 393): > 100 µM (inactive)
GI50 (SN12C): > 100 µM (inactive)
GI50 (PC-3): > 100 µM (inactive)
GI50 (CAKI-1): > 100 µM (inactive)
GI50 (MCF7): > 100 µM (inactive)
GI50 (SW-620): > 100 µM (inactive)
GI50 (HT-29): > 100 µM (inactive)
GI50 (SNB-75): > 100 µM (inactive)
GI50 (ACHN): > 100 µM (inactive)
GI50 (HCC 2998): > 100 µM (inactive)
GI50 (SF-268): > 100 µM (inactive)
GI50 (OVCAR-5): > 100 µM (inactive)
GI50 (CCRF-CEM): > 100 µM (inactive)
GI50 (MDA-N): > 100 µM (inactive)
GI50 (SK-MEL-5): > 100 µM (inactive)
GI50 (U-251): > 100 µM (inactive)
GI50 (IGROV-1): > 100 µM (inactive)
GI50 (MDA-MB-435): > 100 µM (inactive)
GI50 (OVCAR-8): > 100 µM (inactive)
GI50 (SK-OV-3): > 100 µM (inactive)
GI50 (RPMI-8226): > 100 µM (inactive)
GI50 (HOP-62): > 100 µM (inactive)
GI50 (A549): > 100 µM (inactive)
GI50 (786-0): > 100 µM (inactive)
GI50 (SF-539): > 100 µM (inactive)
GI50 (K562): > 100 µM (inactive)
GI50 (A498): > 100 µM (inactive)
GI50 (Malme-3M): > 100 µM (inactive)
GI50 (EKVX): > 100 µM (inactive)
GI50 (TK-10): > 100 µM (inactive)
GI50 (NCI/ADR-RES): > 100 µM (inactive)
GI50 (HCT-15): > 100 µM

N#Cc1nc(/C=C/c2cccnc2)oc1N
GI50 (LOX IMVI): > 100 µM (inactive)
GI50 (NCI-H460): > 100 µM (inactive)
GI50 (M14): > 100 µM (inactive)
GI50 (UACC-257): > 100 µM (inactive)
GI50 (OVCAR-4): > 100 µM (inactive)
GI50 (NCI-H226): > 100 µM (inactive)
GI50 (HCT-116): > 100 µM (inactive)
GI50 (SNB-19): > 100 µM (inactive)
GI50 (DU-145): > 100 µM (inactive)
GI50 (SK-MEL-2): > 100 µM (inactive)
GI50 (KM12): > 100 µM (inactive)
GI50 (COLO 205): > 100 µM (inactive)
GI50 (OVCAR-3): > 100 µM (inactive)
GI50 (SK-MEL-28): > 100 µM (inactive)
GI50 (T47D): > 100 µM (inactive)
GI50 (MOLT-4): > 100 µM (inactive)
GI50 (SR): > 100 µM (inactive)
GI50 (NCI-H23): > 100 µM (inactive)
GI50 (UO-31): > 100 µM (inactive)
GI50 (UACC-62): > 100 µM (inactive)
GI50 (MDA-MB-231): > 100 µM (inactive)
GI50 (HL-60): > 100 µM (inactive)
GI50 (SF-295): > 100 µM (inactive)
GI50 (HOP-92): > 100 µM (inactive)
GI50 (Hs-578T): > 100 µM (inactive)
GI50 (NCI-H522): > 100 µM (inactive)
GI50 (RXF 393): > 100 µM (inactive)
GI50 (SN12C): > 100 µM (inactive)
GI50 (PC-3): > 100 µM (inactive)
GI50 (CAKI-1): > 100 µM (inactive)
GI50 (MCF7): > 100 µM (inactive)
GI50 (SW-620): > 100 µM (inactive)
GI50 (HT-29): > 100 µM (inactive)
GI50 (SNB-75): > 100 µM (inactive)
GI50 (ACHN): > 100 µM (inactive)
GI50 (HCC 2998): > 100 µM (inactive)
GI50 (SF-268): > 100 µM (inactive)
GI50 (OVCAR-5): > 100 µM (inactive)
GI50 (CCRF-CEM): > 100 µM (inactive)
GI50 (MDA-N): > 100 µM (inactive)
GI50 (SK-MEL-5): > 100 µM (inactive)
GI50 (U-251): > 100 µM (inactive)
GI50 (IGROV-1): > 100 µM (inactive)
GI50 (MDA-MB-435): > 100 µM (inactive)
GI50 (SK-OV-3): > 100 µM (inactive)
GI50 (RPMI-8226): > 100 µM (inactive)
GI50 (HOP-62): > 100 µM (inactive)
GI50 (A549): 28.4 µM (inactive)
GI50 (786-0): > 100 µM (inactive)
GI50 (SF-539): > 100 µM (inactive)
GI50 (K562): > 100 µM (inactive)
GI50 (A498): > 100 µM (inactive)
GI50 (Malme-3M): > 100 µM (inactive)
GI50 (EKVX): > 100 µM (inactive)
GI50 (TK-10): > 100 µM (inactive)
GI50 (NCI/ADR-RES): > 100 µM (inactive)
GI50 (HCT-15): > 100 µM
